Assay results as given in ChEMBL document CHEMBL1201862, “PubChem BioAssay data set” (2004).
The source made the active and inactive calls.

Legend:
Caspase-3 = target: T1, Caspase-3 (Homo sapiens, UniProt P42574); format: functional;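 also: Dose-response selectivity test against caspase-3 for candidate inhibitors of sentrin-specific proteases (SENPs)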
T1 sequence (P42574 whole entry): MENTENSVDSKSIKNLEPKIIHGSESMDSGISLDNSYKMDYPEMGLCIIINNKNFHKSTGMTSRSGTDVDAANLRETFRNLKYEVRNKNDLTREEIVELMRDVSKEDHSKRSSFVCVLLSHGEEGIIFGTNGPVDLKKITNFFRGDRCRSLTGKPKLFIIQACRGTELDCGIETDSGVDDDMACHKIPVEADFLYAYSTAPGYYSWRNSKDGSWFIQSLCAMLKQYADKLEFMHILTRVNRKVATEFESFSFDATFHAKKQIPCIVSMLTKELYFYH

[1] = target: T2, Sentrin-specific protease 7 (Homo sapiens, UniProt Q9BQF6); format: functional;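 also: Luminescence-based dose-response confirmation of ultra-high-throughput screening hits, measuring inhibition of SENP7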
T2 sequence (Q9BQF6 whole entry): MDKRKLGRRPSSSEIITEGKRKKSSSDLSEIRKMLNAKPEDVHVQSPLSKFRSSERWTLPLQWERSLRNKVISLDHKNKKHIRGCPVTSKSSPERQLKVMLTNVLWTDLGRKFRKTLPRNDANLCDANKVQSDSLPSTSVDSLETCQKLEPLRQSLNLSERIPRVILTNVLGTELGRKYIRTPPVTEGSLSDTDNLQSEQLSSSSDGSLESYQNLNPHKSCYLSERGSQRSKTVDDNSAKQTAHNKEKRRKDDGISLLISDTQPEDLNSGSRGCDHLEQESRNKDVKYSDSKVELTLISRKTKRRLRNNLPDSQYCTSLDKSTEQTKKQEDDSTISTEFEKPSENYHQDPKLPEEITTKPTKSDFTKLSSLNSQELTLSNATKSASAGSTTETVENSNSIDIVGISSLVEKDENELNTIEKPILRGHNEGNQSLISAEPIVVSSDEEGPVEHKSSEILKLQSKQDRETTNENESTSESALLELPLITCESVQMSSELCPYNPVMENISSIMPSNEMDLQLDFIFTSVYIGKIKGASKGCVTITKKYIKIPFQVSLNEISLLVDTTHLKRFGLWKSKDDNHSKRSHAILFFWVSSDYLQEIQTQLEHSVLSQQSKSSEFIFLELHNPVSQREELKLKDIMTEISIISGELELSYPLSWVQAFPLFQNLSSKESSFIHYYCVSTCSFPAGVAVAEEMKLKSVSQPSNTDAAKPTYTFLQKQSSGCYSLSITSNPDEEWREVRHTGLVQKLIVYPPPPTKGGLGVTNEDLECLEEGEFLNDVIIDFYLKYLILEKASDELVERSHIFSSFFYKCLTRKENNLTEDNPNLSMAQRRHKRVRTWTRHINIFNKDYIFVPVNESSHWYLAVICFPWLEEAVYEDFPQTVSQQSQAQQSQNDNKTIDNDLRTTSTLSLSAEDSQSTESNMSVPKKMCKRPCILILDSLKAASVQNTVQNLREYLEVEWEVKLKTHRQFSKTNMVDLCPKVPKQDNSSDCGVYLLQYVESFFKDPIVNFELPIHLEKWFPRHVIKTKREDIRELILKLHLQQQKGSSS

[2] = target: T3, Sentrin-specific protease 6 (Homo sapiens, UniProt Q9GZR1); format: functional;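 also: Luminescence-based dose-response confirmatory assay of SENP6 inhibition, following up an ultra-high-throughput screen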
T3 sequence (Q9GZR1 whole entry): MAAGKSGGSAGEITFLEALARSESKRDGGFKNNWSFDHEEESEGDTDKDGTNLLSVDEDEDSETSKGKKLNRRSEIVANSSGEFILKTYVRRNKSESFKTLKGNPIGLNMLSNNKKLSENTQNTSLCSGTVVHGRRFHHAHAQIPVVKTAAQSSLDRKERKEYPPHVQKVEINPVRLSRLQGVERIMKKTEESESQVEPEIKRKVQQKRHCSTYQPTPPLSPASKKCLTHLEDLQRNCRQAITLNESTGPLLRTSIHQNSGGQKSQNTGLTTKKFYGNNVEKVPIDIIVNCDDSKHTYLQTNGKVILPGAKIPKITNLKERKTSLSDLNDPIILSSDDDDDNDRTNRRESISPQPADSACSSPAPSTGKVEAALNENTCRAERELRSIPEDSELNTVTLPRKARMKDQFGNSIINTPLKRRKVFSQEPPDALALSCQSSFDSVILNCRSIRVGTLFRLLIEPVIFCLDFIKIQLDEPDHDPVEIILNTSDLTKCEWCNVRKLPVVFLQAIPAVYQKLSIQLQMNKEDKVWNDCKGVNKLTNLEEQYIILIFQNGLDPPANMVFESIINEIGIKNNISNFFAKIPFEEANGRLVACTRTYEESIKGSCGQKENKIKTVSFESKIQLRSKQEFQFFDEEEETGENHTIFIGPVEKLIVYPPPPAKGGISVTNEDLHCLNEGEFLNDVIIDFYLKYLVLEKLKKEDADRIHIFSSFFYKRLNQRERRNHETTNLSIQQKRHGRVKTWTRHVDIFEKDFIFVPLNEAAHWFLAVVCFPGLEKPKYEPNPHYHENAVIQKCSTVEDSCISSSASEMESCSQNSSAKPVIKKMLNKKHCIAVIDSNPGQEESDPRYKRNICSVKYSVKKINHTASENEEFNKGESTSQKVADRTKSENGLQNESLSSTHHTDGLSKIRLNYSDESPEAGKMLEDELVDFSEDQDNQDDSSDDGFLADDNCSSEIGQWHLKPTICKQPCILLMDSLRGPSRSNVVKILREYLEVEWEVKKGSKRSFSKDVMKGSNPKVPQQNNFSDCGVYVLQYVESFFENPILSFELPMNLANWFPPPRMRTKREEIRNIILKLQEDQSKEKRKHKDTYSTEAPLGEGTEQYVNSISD

[3] = target: T4, Sentrin-specific protease 8 (Homo sapiens, UniProt Q96LD8); format: functional;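 also: luminescence read-out of SENP8 inhibition, dose-response confirmation following an ultra-high-throughput screen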
T4 sequence (Q96LD8 whole entry): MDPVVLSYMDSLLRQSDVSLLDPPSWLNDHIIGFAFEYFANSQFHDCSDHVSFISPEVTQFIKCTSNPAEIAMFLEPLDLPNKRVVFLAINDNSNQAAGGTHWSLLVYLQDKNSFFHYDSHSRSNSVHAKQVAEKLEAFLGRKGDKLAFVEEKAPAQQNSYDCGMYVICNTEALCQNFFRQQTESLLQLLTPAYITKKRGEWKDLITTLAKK

[4] = target: SWI/SNF-related matrix-associated actin-dependent regulator of chromatin subfamily A member 2 (Homo sapiens, UniProt P51531); test: Luminescence-based cell-based high throughput dose response assay to identify activators of the function of SWI/SNF related, matrix associated, actin dependent regulator of chromatin, subfamily a, member 2 (SMARCA2, BRM).; format: functional
[5] = Counterscreen for activators of the function of SWI/SNF related, matrix associated, actin dependent regulator of chromatin, subfamily a, member 2 (SMARCA2, BRM): Luminescence-based cell-based high throughput dose response assay to identify non-selective compounds using the VP16 reporter assay.; format: functional
[6] = system: Streptococcus sp. 'group A'; test: Streptococcus pyogenes SK(-)GAS viability under kanamycin – luminescence, BacTiterGlo, confirmation, counter-screen for streptokinase expression inhibitor project, dose response (AID 1900); format: functional, organism-based
Streptokinase A = target: T5, Streptokinase A (Streptococcus pyogenes serotype M1, UniProt P10520); test: viability-normalized secreted streptokinase activity reduction – plasminogen activation absorbance, OD405, dose response (AID 1914); format: functional, Streptococcus pyogenes M1 GAS;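 also: secreted streptokinase activity via plasminogen activation per viability signal from cell pellet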
T5 sequence (P10520 whole entry): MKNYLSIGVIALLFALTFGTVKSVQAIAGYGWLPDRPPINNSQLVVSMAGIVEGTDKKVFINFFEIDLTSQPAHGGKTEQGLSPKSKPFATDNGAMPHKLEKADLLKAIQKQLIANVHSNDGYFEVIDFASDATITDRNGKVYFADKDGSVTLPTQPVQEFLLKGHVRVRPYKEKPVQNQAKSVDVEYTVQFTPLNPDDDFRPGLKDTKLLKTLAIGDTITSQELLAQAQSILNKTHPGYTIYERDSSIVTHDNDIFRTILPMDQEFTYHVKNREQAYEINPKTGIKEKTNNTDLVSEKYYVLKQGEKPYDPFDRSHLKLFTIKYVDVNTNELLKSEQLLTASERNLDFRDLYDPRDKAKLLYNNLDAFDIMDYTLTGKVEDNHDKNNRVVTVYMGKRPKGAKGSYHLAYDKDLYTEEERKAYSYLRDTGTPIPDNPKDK

Streptococcus = test: GAS UMAA2166 growth inhibition – luminescence, BacTiterGlo, counter-screen for streptokinase expression inhibitor project, dose response (AID 1915); format: functional, organism-based;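 also: potency for reduction of bacterial viability or growth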
[7] = target: T6, DNA repair and recombination protein RAD54-like (Homo sapiens, UniProt Q92698); test: RAD54 Holliday junction migration blockers – biochemical, fluorescence, cherry-picked samples, dose series, confirmation (AID 651657); format: functional
T6 sequence (Q92698 whole entry): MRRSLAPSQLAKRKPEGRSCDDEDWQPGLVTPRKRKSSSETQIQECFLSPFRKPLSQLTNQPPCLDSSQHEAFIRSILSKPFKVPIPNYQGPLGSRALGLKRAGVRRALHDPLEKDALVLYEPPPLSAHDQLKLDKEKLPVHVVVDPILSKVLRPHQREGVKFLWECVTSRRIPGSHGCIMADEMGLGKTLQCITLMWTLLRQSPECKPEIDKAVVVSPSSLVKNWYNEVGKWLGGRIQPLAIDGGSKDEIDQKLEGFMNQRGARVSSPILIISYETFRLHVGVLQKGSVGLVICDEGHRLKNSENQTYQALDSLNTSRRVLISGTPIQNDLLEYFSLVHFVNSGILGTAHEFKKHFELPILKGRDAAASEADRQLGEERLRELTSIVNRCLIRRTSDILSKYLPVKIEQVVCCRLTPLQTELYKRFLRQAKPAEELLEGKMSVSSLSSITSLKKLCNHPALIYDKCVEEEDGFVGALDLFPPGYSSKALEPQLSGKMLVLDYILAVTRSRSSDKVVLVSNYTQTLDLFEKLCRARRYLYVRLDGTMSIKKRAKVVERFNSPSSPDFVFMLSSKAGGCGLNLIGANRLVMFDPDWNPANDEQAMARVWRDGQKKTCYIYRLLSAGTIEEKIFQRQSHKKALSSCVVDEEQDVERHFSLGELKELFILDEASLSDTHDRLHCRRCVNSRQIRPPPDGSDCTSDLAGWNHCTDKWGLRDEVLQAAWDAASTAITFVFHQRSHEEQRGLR

P388/ADR = test: cells; format: functional; conditions: Mus musculus
SN12K1 = test: cells; format: functional; conditions: Homo sapiens
P388 = test: cells; format: functional; conditions: Mus musculus
[8] = blockers of HIV-1 ZM109 envelope-driven cell-cell fusion – HeLa effector, CEM target cells, luciferase, cherry-pick, dose response (AID 652058); format: functional, cell-based;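 also: luciferase signal from HIV-1 Env mediated cell-cell fusion of effector and target cells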
Paired box protein Pax-8 = Paired box protein Pax-8 (Homo sapiens, UniProt Q06710); test: PAX8 transcriptional activity inhibition in RMG-I – RMG-I cells, luciferase, cherry-pick, dose response (AID 687027); format: functional, cell-based;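 also: luciferase reporter driven by Pax8 target thyroperoxidase promoter measured by SteadyGlo luminescence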
[9] = OVCAR-3 cell viability loss – plate reader, dry powder samples, PAX8 inhibitor project, dose response (AID 743044); format: functional, cell-based
[10] = IGROV1 cell killing – plate reader, dry powder samples, PAX8 inhibitor project, dose response (AID 743043); format: functional, cell-based; conditions: IGROV-1
[11] = general cell-killing toxicity readout – plate reader, dry powder samples, cytotoxicity control for PAX8 inhibitor project, dose response (AID 743021); format: functional, cell-based
[12] = OVCAR8 cell viability loss – plate reader, dry powder samples, PAX8 project, dose response (AID 743197); format: functional, cell-based; conditions: OVCAR-8

SWI/SNF-related matrix-associated actin-dependent regulator of chromatin subfamily A member 2, sequence (P51531 whole entry): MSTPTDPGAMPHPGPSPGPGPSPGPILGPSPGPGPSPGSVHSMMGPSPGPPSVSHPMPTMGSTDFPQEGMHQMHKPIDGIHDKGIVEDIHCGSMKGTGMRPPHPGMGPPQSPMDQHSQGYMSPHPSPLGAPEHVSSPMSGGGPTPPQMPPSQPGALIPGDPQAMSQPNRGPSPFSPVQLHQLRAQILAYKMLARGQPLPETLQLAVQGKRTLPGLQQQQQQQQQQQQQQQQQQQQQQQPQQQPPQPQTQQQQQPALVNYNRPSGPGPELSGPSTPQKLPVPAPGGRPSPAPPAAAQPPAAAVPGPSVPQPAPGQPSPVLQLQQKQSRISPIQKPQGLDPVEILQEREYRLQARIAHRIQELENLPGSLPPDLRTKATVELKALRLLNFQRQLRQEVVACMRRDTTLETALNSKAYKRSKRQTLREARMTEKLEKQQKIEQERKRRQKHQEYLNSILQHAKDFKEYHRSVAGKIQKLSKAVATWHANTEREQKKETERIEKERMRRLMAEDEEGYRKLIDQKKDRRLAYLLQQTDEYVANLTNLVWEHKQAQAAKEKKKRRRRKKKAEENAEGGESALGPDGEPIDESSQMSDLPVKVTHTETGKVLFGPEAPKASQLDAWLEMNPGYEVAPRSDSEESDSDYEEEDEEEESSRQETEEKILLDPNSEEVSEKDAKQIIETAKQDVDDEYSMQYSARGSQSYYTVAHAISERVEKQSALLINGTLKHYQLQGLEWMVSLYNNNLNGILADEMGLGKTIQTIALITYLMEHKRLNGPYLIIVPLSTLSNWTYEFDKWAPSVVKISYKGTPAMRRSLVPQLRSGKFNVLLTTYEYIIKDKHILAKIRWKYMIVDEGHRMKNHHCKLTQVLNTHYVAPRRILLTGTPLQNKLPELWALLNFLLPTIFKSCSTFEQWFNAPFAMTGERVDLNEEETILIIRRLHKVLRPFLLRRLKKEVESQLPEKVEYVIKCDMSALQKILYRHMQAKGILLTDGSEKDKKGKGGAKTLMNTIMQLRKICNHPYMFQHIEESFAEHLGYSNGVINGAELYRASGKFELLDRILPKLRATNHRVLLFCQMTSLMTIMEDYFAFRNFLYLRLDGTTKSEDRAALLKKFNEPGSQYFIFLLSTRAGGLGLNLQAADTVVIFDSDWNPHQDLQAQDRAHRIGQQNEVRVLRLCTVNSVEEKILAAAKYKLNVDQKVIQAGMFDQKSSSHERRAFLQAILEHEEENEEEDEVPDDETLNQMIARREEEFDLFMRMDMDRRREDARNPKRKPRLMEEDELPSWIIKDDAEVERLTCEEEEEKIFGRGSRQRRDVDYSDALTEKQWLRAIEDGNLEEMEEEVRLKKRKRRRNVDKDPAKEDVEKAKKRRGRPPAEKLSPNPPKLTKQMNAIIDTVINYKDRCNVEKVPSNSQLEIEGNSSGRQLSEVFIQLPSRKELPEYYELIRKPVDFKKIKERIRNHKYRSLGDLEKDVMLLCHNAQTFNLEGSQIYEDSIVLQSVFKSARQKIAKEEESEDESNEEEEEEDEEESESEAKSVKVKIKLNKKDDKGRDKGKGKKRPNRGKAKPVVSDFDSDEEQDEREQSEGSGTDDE
Paired box protein Pax-8, sequence (Q06710 whole entry): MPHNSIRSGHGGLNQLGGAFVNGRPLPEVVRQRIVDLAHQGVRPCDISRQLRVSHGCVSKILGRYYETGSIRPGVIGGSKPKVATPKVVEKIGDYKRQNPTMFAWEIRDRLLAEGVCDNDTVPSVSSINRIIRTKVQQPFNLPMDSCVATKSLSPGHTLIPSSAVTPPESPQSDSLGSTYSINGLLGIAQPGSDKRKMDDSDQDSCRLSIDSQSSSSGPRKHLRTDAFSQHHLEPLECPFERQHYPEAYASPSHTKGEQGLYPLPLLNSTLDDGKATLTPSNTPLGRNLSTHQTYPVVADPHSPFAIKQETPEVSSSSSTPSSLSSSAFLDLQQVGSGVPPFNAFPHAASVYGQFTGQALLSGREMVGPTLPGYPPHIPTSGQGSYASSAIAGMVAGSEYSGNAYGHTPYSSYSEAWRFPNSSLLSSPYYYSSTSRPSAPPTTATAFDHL

Compound: Cc1c(/C=C/C(=O)c2ccccc2O)cnn1C
- IC50 (Caspase-3): 15.3 µM (active)
- IC50 [1]: 4.84 µM (active)
- IC50 [2]: 14.2 µM (active)
- IC50 [3]: 25.2 µM (active)

Compound: Cc1c(NC(=O)c2ccccc2N)cccc1C(=O)O
- IC50 (Caspase-3): 38.1 µM (active)
- IC50 [1]: 2.73 µM (active)
- IC50 [2]: 9.43 µM (active)
- IC50 [3]: 11.4 µM (active)

Compound: Cc1n[nH]c(SCC(=O)N2CCc3ccccc32)n1
- EC50 [4]: > 91 µM (inactive)
- EC50 [5]: > 91 µM (inactive)

Compound: Cc1cccc(Nc2nc(-c3ccc(F)c(C)c3)cs2)n1
- EC50 [6]: 8.77 µM (active)
- EC50 (Streptokinase A): > 50 µM (not active)
- EC50 (Streptococcus): 26.7 µM (active)
- IC50 (Caspase-3): 41.4 µM (active)
- IC50 [1]: 5.75 µM (active)
- IC50 [2]: 24 µM (active)
- IC50 [3]: 41.5 µM (active)

Compound: O=C(c1cccs1)c1coc2ccc(O)cc12
- IC50 (Caspase-3): 13.7 µM (active)
- IC50 [1]: 7.28 µM (active)
- IC50 [2]: 10.6 µM (active)
- IC50 [3]: > 100 µM (inactive)

Compound: CCOC(=O)c1cnc2ccc(C)cc2c1NCCN1CCOCC1
- AC50 [7]: 98.8 µM (active)

Compound: OC(CBr)C(O)C(O)C(O)CBr (centres undefined)
- GI50 (P388/ADR): 5.89 µM (inactive)
- GI50 (SN12K1): > 100 µM (inactive)
- GI50 (P388): 3.53 µM (inactive)

Compound: CCCCS(=O)(=O)Nc1ccc(Nc2c3ccccc3nc3ccccc23)c(OC)c1
- GI50 (P388/ADR): 0.255 µM (active)
- GI50 (SN12K1): 1.26 µM (inactive)
- GI50 (P388): < 0.01 µM (active)

Compound: O=C(Nc1ccc(F)cc1)Nc1ccc2c(c1)[C@@H]1C[C@H](CC(=O)N3CCCCC3)O[C@@H](CO)[C@@H]1O2
- AC50 [8]: 35 µM (active)

Compound: Cc1ccc(S(=O)(=O)Nc2ccc3c(c2)C(=O)N([C@@H](C)CO)C[C@@H](C)[C@H](CN(C)Cc2ccc(C(F)(F)F)cc2)OCCCC[C@@H](C)O3)cc1
- AC50 (Paired box protein Pax-8): 8.98 µM (active)
- AC50 [9]: 17.9 µM (active)
- AC50 [10]: 36.9 µM (active)
- AC50 [11]: 43 µM (active)
- AC50 [12]: > 70 µM (inactive)

Compound: CC[C@@]1(O)CC(OC2CC(N3CCOCC3)C(O)C(C)O2)c2c(O)c3c(c(O)c2[C@H]1O)C(=O)c1cccc(O)c1C3=O (some centres undefined)
- GI50 (P388/ADR): 9.75e-06 µM (active)
- GI50 (P388): 0.00366 µM (active)

Compound: Nc1nc(O)c2ncn(C3OC(CO)C(O)C3O)c2n1 (centres undefined)
- GI50 (P388/ADR): 2.33 µM (inactive)
- GI50 (SN12K1): 63.2 µM (inactive)
- GI50 (P388): 9.73 µM (inactive)

Compound: Clc1ccc(CO/N=C2\CCCc3nonc32)cc1
- EC50 [4]: > 91.2 µM (inactive)
- EC50 [5]: > 91.2 µM (inactive)

Compound: Cc1cc(O)c2c(c1)C(=O)c1c(c(O)cc(O)c1-c1c(O)cc(O)c3c1C(=O)c1cc(C)cc(O)c1C3=O)C2=O [SKYRIN]
- GI50 (P388/ADR): 17.9 µM (inactive)
- GI50 (SN12K1): 9.23 µM (inactive)
- GI50 (P388): 8.95 µM (inactive)
